Reference: ChEMBL document CHEMBL1201862, “PubChem BioAssay data set” (2004)
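Interpolation was linear, between the two tested concentrations surrounding the appropriate level; five concentrations were tested over 48 hours in 96-well plates. Here, GI50 denotes the concentration required for 50% inhibition of growth.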 Calls of active or inactive are those of the source. Cut-off read from the data, not from the text of the source: active = GI50 up to about 1.1 µM and inactive = higher.

Key:
Test in all cases: growth of human tumour cells (NCI), 48 h
U-251 = tested on: U-251
OVCAR-8 = tested on: OVCAR-8
BT-549 = tested on: BT-549
Hs-578T = tested on: Hs-578T
HOP-62 = tested on: HOP-62
OVCAR-4 = tested on: OVCAR-4
NCI-H23 = tested on: NCI-H23
UACC-257 = tested on: UACC-257
Malme-3M = tested on: Malme-3M
HCT-116 = tested on: HCT-116
TK-10 = tested on: TK-10
NCI-H522 = tested on: NCI-H522
COLO 205 = tested on: COLO 205
SNB-19 = tested on: SNB-19
HCC 2998 = tested on: HCC 2998
NCI-H226 = tested on: NCI-H226
HT-29 = tested on: HT-29
SK-MEL-28 = tested on: SK-MEL-28
RPMI-8226 = tested on: RPMI-8226
DU-145 = tested on: DU-145
SK-MEL-5 = tested on: SK-MEL-5
MDA-MB-231 = tested on: MDA-MB-231
OVCAR-5 = tested on: OVCAR-5
CAKI-1 = tested on: CAKI-1
SK-OV-3 = tested on: SK-OV-3
HL-60 = tested on: HL-60
SR = tested on: SR
PC-3 = tested on: PC-3
HOP-92 = tested on: HOP-92
UO-31 = tested on: UO-31
A549 = tested on: A549
M14 = tested on: M14
SF-295 = tested on: SF-295
K562 = tested on: K562
KM12 = tested on: KM12
LOX IMVI = tested on: LOX IMVI
IGROV-1 = tested on: IGROV-1
NCI-H460 = tested on: NCI-H460
SN12C = tested on: SN12C
786-0 = tested on: 786-0
EKVX = tested on: EKVX
MDA-MB-435 = tested on: MDA-MB-435
RXF 393 = tested on: RXF 393
ACHN = tested on: ACHN
MOLT-4 = tested on: MOLT-4
NCI/ADR-RES = tested on: NCI/ADR-RES
SW-620 = tested on: SW-620
HCT-15 = tested on: HCT-15
MDA-N = tested on: MDA-N
OVCAR-3 = tested on: OVCAR-3
SF-539 = tested on: SF-539
MCF7 = tested on: MCF7
SF-268 = tested on: SF-268
T47D = tested on: T47D
SNB-75 = tested on: SNB-75
SK-MEL-2 = tested on: SK-MEL-2
UACC-62 = tested on: UACC-62

O=C(Nc1ccccc1)c1cc(S(=O)(=O)NC2=Nc3ccc(Cl)cc3C(c3ccccc3)N2)c(SSc2cc(Cl)c(C(=O)Nc3ccccc3)cc2S(=O)(=O)NC2=Nc3ccc(Cl)cc3C(c3ccccc3)N2)cc1Cl (configuration not stated)
GI50 (U-251): > 100 µM (inactive)
GI50 (OVCAR-8): > 100 µM (inactive)
GI50 (BT-549): > 100 µM (inactive)
GI50 (Hs-578T): > 100 µM (inactive)
GI50 (HOP-62): > 80.5 µM (inactive)
GI50 (OVCAR-4): > 100 µM (inactive)
GI50 (NCI-H23): > 100 µM (inactive)
GI50 (UACC-257): > 100 µM (inactive)
GI50 (Malme-3M): > 100 µM (inactive)
GI50 (HCT-116): > 100 µM (inactive)
GI50 (TK-10): > 100 µM (inactive)
GI50 (NCI-H522): > 100 µM (inactive)
GI50 (COLO 205): > 100 µM (inactive)
GI50 (SNB-19): > 100 µM (inactive)
GI50 (HCC 2998): > 100 µM (inactive)
GI50 (NCI-H226): > 100 µM (inactive)
GI50 (HT-29): > 100 µM (inactive)
GI50 (SK-MEL-28): > 100 µM (inactive)
GI50 (RPMI-8226): 55.3 µM (inactive)
GI50 (DU-145): > 100 µM (inactive)
GI50 (SK-MEL-5): > 100 µM (inactive)
GI50 (MDA-MB-231): > 45.3 µM (inactive)
GI50 (OVCAR-5): > 61.5 µM (inactive)
GI50 (CAKI-1): > 100 µM (inactive)
GI50 (SK-OV-3): > 100 µM (inactive)
GI50 (HL-60): > 36.1 µM (inactive)
GI50 (SR): 13.6 µM (inactive)
GI50 (PC-3): > 100 µM (inactive)
GI50 (HOP-92): > 100 µM (inactive)
GI50 (UO-31): > 100 µM (inactive)
GI50 (A549): > 100 µM (inactive)
GI50 (M14): > 57.4 µM (inactive)
GI50 (SF-295): > 100 µM (inactive)
GI50 (K562): 38 µM (inactive)
GI50 (KM12): > 100 µM (inactive)
GI50 (LOX IMVI): > 100 µM (inactive)
GI50 (IGROV-1): > 100 µM (inactive)
GI50 (NCI-H460): > 100 µM (inactive)
GI50 (SN12C): > 100 µM (inactive)
GI50 (786-0): > 100 µM (inactive)
GI50 (EKVX): > 100 µM (inactive)
GI50 (MDA-MB-435): > 100 µM (inactive)
GI50 (RXF 393): > 100 µM (inactive)
GI50 (ACHN): > 100 µM (inactive)
GI50 (MOLT-4): 28.4 µM (inactive)
GI50 (NCI/ADR-RES): > 100 µM (inactive)
GI50 (SW-620): > 100 µM (inactive)
GI50 (HCT-15): > 100 µM
GI50 (MDA-N): > 100 µM (inactive)
GI50 (OVCAR-3): > 100 µM (inactive)
GI50 (SF-539): > 100 µM (inactive)
GI50 (MCF7): > 100 µM (inactive)
GI50 (SF-268): > 100 µM (inactive)
GI50 (T47D): > 100 µM (inactive)
GI50 (SNB-75): > 100 µM (inactive)
GI50 (SK-MEL-2): > 100 µM (inactive)
GI50 (UACC-62): > 89.9 µM (inactive)
